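Compound exposure: 48 hours, 5 concentrations, 96-well plates. GI50 marks 50% less growth. Definition used: TGI = concentration required for complete inhibition of growth.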
system: 786-0 renal; assay: inhibition of tumour cell growth, NCI panel, 48 h

Compound	GI50	TGI
CN1CCN(c2ccc3nc(-c4ccc(OCCCCN5CCN(CCCCN6C(=O)c7cccc8cccc(c78)C6=O)CC5)cc4)[nH]c3c2)CC1	> 100 µM	> 100 µM
CC1=C(N2CC2)C(=O)c2ccccc2C1=O	–	3.47 µM
O=S1(=O)c2ccccc2N=C(c2ccccc2Cl)CC1c1ccc(F)cc1 (stereo not given)	–	30.5 µM
CC1=CC(=O)NP(=O)(C23CC4CC(CC(C4)C2)C3)N1 (stereo not given)	–	> 100 µM
Oc1ccc(Cl)cc1/C=N\NC(=S)N/N=C/c1cc(Cl)ccc1O	1.43 µM	4.52 µM
O=c1[nH]cc(C(F)(C(F)(F)F)C(F)(F)F)c(=O)[nH]1	–	> 100 µM
COc1ccc2c(c1)c1c3n2CCNN=C3CCC1	–	> 100 µM
CC(=O)[C-](C(C)=O)c1ccccc1.CC(=O)[C-](C(C)=O)c1ccccc1.CC(=O)[C-](C(C)=O)c1ccccc1.[Cl-].[Zr+4]	38.7 µM	> 100 µM
O=Cc1ccc(N2CCN(c3ccc(C=O)cc3)CC2)cc1	> 100 µM	> 100 µM
CC(C)N1C(C)[C@@H](c2ccccc2)O[P@]1(=O)CC1=CCCCC1 (stereo not given in full)	–	> 100 µM
Cc1cc(Nc2nc(-c3ccncc3)nc3ccccc23)n[nH]1	2.98 µM	> 100 µM
COC(=O)C(=O)C(C(=O)C(=O)Nc1cc(Cl)c(Cl)cc1Cl)c1nc2ccc([N+](=O)[O-])cc2[nH]c1=O (stereo not given)	–	> 100 µM
COc1ccc(NC(=O)C2C(=O)N(c3ccc(OC)cc3)C(=O)/C2=N\NC(N)=O)cc1 (stereo not given)	–	49.3 µM
C/C(=N\NS(=O)(=O)c1ccc([N+](=O)[O-])cc1)c1ccc[n+]([O-])n1	–	15.6 µM
S=c1c2ccccc2c(=S)n2n1CC=CC2	–	> 100 µM
CC(C)(C)Sc1nnc(SC(C)(C)C)c2c(=O)[nH]nc(SC(C)(C)C)c12	–	22.3 µM
CCCCNC1=C(C(=O)OCC)/C(=N/NC(=O)c2ccccc2O)CO1	–	> 100 µM
N#CC(C(=O)CCCC(=O)Nc1ccc(Cl)cc1Cl)c1ccc(Cl)cc1 (stereo not given)	–	> 100 µM
Cc1ccc(-c2n[nH]c(=O)c3noc(-c4ccc(C)cc4)c23)cc1	2.78 µM	24.9 µM
O=CCCCC(Sc1ccccc1)Sc1ccccc1	–	46 µM
Nc1ccn(C2OC(C(OC3OC(CO)C(O)C(N)C3O)C(O)C(O)C(O)C(O)CO)C(N)C(O)C2O)c(=O)n1 (stereo not given)	–	> 100 µM

Compound	GI50	TGI
COc1ccc(C)cc1C1CCC(=O)O1 (stereo not given)	–	> 100 µM
Cc1ccc2nc(NC(=O)C(=O)CC(=O)c3cccc4ccccc34)sc2c1	–	39.3 µM
Nc1c(C(=O)Nc2cccc3ccccc23)sc2nc3c(cc12)C(=O)CCC3	0.388 µM	35.8 µM
O=C1CCC(=O)c2sccc2N1	–	> 100 µM
CCCCCCCCCCCCCCCCCC(=O)NCC(COP(=O)(O)O)OCC (stereo not given)	–	> 100 µM
Cn1nc(-c2ccccc2)c(C(=O)/C=C/c2ccc(Cl)cc2)c(N2CCCC2)c1=O	–	13.5 µM
Cc1cc2nc(-c3c(F)cccc3Cl)n(Cc3c(F)cccc3Cl)c2cc1C	15.8 µM	31.3 µM
CCOC(=O)c1c(C)n(Cc2ccccc2)c2c1cc1oc(=O)c(=O)n3cnc2c13	13.7 µM	> 50 µM
O=C1C=Cc2ncccc2C1=O	–	29.1 µM
C/C(CC(=O)Nc1cccc([N+](=O)[O-])c1)=N\NC(=O)CC#N	–	> 100 µM
[CH3][Sn]1([CH3])[O]CC(COc2cc(Cl)c(Cl)cc2Cl)[O]1 (stereo not given)	> 100 µM	> 100 µM
O=C(/C=C/c1ccccc1)CCC1C(=O)NC(=S)NC1=O	–	> 100 µM
CCc1cc(Cc2ccc(C)c(NC(=O)C(=O)C3C(=O)NC(=O)NC3=O)c2CC)cc(C)c1NC(=O)C(=O)C1C(=O)NC(=O)NC1=O	–	> 100 µM
CC(=O)OC(=O)O/C=C\CCl	–	> 100 µM
O=C(Nc1nc2ccccc2s1)c1cc(-c2ccc(F)cc2)n2nc(-c3ccccc3)cc2n1	2.12 µM	5.1 µM
CC(=O)c1c2c(cc3c1CC1(C3)Cc3cc4c(c(C(=O)O)c3C1)CCC4)CCC2 (stereo not given)	–	> 100 µM
C/C(=N/O)c1ccc(Nc2cc(-n3ccnc3)c3ccccc3n2)cc1	4.83 µM	> 100 µM
Cc1ccc(/C=N/NS(=O)(=O)c2ccccc2)c(C)c1	–	> 100 µM
C#CCOCn1cnc2ncnc(N)c21	–	> 100 µM
Cc1noc(/N=C2\C=C(Nc3onc(C)c3C)C(=O)c3ccccc32)c1C	–	> 100 µM

system: BT-549 breast; assay: inhibition of tumour cell growth, NCI panel, 48 h

Compound	GI50	TGI
CN1CCN(c2ccc3nc(-c4ccc(OCCCCN5CCN(CCCCN6C(=O)c7cccc8cccc(c78)C6=O)CC5)cc4)[nH]c3c2)CC1	40.4 µM	> 100 µM
Cc1cc(Nc2nc(-c3ccncc3)nc3ccccc23)n[nH]1	9.09 µM	> 100 µM
Cc1ccc(-c2n[nH]c(=O)c3noc(-c4ccc(C)cc4)c23)cc1	1.33 µM	12.8 µM
Nc1ccn(C2OC(C(OC3OC(CO)C(O)C(N)C3O)C(O)C(O)C(O)C(O)CO)C(N)C(O)C2O)c(=O)n1 (stereo not given)	–	99 µM
Nc1c(C(=O)Nc2cccc3ccccc23)sc2nc3c(cc12)C(=O)CCC3	3.08 µM	> 67.1 µM
Cc1cc2nc(-c3c(F)cccc3Cl)n(Cc3c(F)cccc3Cl)c2cc1C	18.5 µM	46.2 µM
CCOC(=O)c1c(C)n(Cc2ccccc2)c2c1cc1oc(=O)c(=O)n3cnc2c13	16.2 µM	34.2 µM
O=C(/C=C/c1ccccc1)CCC1C(=O)NC(=S)NC1=O	–	> 100 µM
O=C(Nc1nc2ccccc2s1)c1cc(-c2ccc(F)cc2)n2nc(-c3ccccc3)cc2n1	2.05 µM	6.5 µM
C/C(=N/O)c1ccc(Nc2cc(-n3ccnc3)c3ccccc3n2)cc1	16.8 µM	84.7 µM

system: COLO 205 colon; assay: inhibition of tumour cell growth, NCI panel, 48 h

Compound	GI50	TGI
CN1CCN(c2ccc3nc(-c4ccc(OCCCCN5CCN(CCCCN6C(=O)c7cccc8cccc(c78)C6=O)CC5)cc4)[nH]c3c2)CC1	96.8 µM	> 100 µM
CC1=C(N2CC2)C(=O)c2ccccc2C1=O	–	2.05 µM
O=S1(=O)c2ccccc2N=C(c2ccccc2Cl)CC1c1ccc(F)cc1 (stereo not given)	–	40.3 µM
CC1=CC(=O)NP(=O)(C23CC4CC(CC(C4)C2)C3)N1 (stereo not given)	–	> 100 µM
Oc1ccc(Cl)cc1/C=N\NC(=S)N/N=C/c1cc(Cl)ccc1O	3.34 µM	41.6 µM
O=c1[nH]cc(C(F)(C(F)(F)F)C(F)(F)F)c(=O)[nH]1	–	> 100 µM
COc1ccc2c(c1)c1c3n2CCNN=C3CCC1	–	> 100 µM
CC(=O)[C-](C(C)=O)c1ccccc1.CC(=O)[C-](C(C)=O)c1ccccc1.CC(=O)[C-](C(C)=O)c1ccccc1.[Cl-].[Zr+4]	> 100 µM	> 100 µM
O=Cc1ccc(N2CCN(c3ccc(C=O)cc3)CC2)cc1	> 100 µM	> 100 µM
CC(C)N1C(C)[C@@H](c2ccccc2)O[P@]1(=O)CC1=CCCCC1 (stereo not given in full)	–	> 100 µM
Cc1cc(Nc2nc(-c3ccncc3)nc3ccccc23)n[nH]1	2.17 µM	6.4 µM
COC(=O)C(=O)C(C(=O)C(=O)Nc1cc(Cl)c(Cl)cc1Cl)c1nc2ccc([N+](=O)[O-])cc2[nH]c1=O (stereo not given)	–	> 100 µM
COc1ccc(NC(=O)C2C(=O)N(c3ccc(OC)cc3)C(=O)/C2=N\NC(N)=O)cc1 (stereo not given)	–	> 100 µM
C/C(=N\NS(=O)(=O)c1ccc([N+](=O)[O-])cc1)c1ccc[n+]([O-])n1	–	6.56 µM
S=c1c2ccccc2c(=S)n2n1CC=CC2	–	> 100 µM
CC(C)(C)Sc1nnc(SC(C)(C)C)c2c(=O)[nH]nc(SC(C)(C)C)c12	–	25.2 µM
CCCCNC1=C(C(=O)OCC)/C(=N/NC(=O)c2ccccc2O)CO1	–	> 100 µM
N#CC(C(=O)CCCC(=O)Nc1ccc(Cl)cc1Cl)c1ccc(Cl)cc1 (stereo not given)	–	> 100 µM
Cc1ccc(-c2n[nH]c(=O)c3noc(-c4ccc(C)cc4)c23)cc1	0.752 µM	5.05 µM
O=CCCCC(Sc1ccccc1)Sc1ccccc1	–	57.9 µM
Nc1ccn(C2OC(C(OC3OC(CO)C(O)C(N)C3O)C(O)C(O)C(O)C(O)CO)C(N)C(O)C2O)c(=O)n1 (stereo not given)	–	> 100 µM
COc1ccc(C)cc1C1CCC(=O)O1 (stereo not given)	–	> 100 µM
Cc1ccc2nc(NC(=O)C(=O)CC(=O)c3cccc4ccccc34)sc2c1	–	> 100 µM
Nc1c(C(=O)Nc2cccc3ccccc23)sc2nc3c(cc12)C(=O)CCC3	0.15 µM	0.418 µM
O=C1CCC(=O)c2sccc2N1	–	> 100 µM
CCCCCCCCCCCCCCCCCC(=O)NCC(COP(=O)(O)O)OCC (stereo not given)	–	> 100 µM
Cn1nc(-c2ccccc2)c(C(=O)/C=C/c2ccc(Cl)cc2)c(N2CCCC2)c1=O	–	4.07 µM

Reference: PubChem BioAssay (NCI)
